Measurements reported in patent US8404692B2, “Pyrimidin-4-yl-3, 4-dihydro-2H-pyrrolo [1,2A] pyrazin-1-one compounds” (Cyclacel Limited, priority 2005, dated 2013).

What follows are molecules tested against T1, aurora-A (human) (Homo sapiens, UniProt O14965) (assay: Aurora-A (human) kinase assay). Details: read-out: Activity (Aurora A activity, IC50 grading).
T1 construct: purchased Upstate, Dundee, UK
T1 sequence (O14965 1-403): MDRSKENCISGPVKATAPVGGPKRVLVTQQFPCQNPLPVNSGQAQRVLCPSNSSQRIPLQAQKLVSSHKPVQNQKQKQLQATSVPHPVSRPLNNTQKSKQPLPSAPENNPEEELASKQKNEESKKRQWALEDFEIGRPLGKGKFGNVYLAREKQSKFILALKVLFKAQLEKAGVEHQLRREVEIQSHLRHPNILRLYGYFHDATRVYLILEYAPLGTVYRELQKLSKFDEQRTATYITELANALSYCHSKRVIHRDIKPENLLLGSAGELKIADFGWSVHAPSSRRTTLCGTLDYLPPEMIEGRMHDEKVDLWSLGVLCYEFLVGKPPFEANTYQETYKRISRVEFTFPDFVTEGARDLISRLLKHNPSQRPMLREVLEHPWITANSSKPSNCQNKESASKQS
Format: biochemical
How it was run: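 Radiometric assay measuring [γ-32P] transfer from 100 μM ATP to 500 μM Kemptide by 2-5 ng active human aurora-A, pH 7.5 buffer, 30 min at 30° C. Incorporated label captured on P81 filters and counted by scintillation; IC50 from curve fitting.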

| Structure (SMILES) | IC50 |
| --- | --- |
| Cc1c(-c2ccnc(Nc3ccc(-n4cncn4)cc3)n2)c(C)n2c1C(=O)NCC2 [Example I-73, 6,8-Dimethyl-7-[2-(4-[1,2,4]triazol-1-yl-phenylamino)-pyrimidin-4-yl]-3,4-dihydro-2H-pyrrolo[1,2-a]pyrazin-1-one] | < 1000 nM |
| Cc1c(-c2ccnc(Nc3ccc(-n4cccc4)cc3)n2)c(C)n2c1C(=O)NCC2 [Example I-74, 6,8-Dimethyl-7-[2-(4-pyrrol-1-yl-phenylamino)-pyrimidin-4-yl]-3,4-dihydro-2H-pyrrolo[1,2-a]pyrazin-1-one] | < 1000 nM |
| Cc1c(-c2ccnc(Nc3ccc(-c4cn5c(n4)SCC5)cc3)n2)c(C)n2c1C(=O)NCC2 [Example I-75, 7-{2-[4-(2,3-Dihydro-imidazo[2,1-b]thiazol-6-yl)-phenylamino]-pyrimidin-4-yl}-6,8-dimethyl-3,4-dihydro-2H-pyrrolo[1,2-a]pyrazin-1-one] | < 100 nM |
| CNc1ccc(Nc2nccc(-c3c(C)c4n(c3C)CCNC4=O)n2)cc1OC [Example I-76, 7-[2-(3-Methoxy-4-methylamino-phenylamino)-pyrimidin-4-yl]-6,8-dimethyl-3,4-dihydro-2H-pyrrolo[1,2-a]pyrazin-1-one] | < 1000 nM |
| Cc1c(-c2ccnc(Nc3ccc(C#N)cc3)n2)c(C)n2c1C(=O)NCC2 [Example I-77, 4-[4-(6,8-Dimethyl-1-oxo-1,2,3,4-tetrahydro-pyrrolo[1,2-a]pyrazin-7-yl)-pyrimidin-2-ylamino]-benzonitrile] | < 1000 nM |
| Cc1c(-c2ccnc(Nc3ccc(-c4cccnc4)cc3)n2)c(C)n2c1C(=O)NCC2 [Example I-78, 6,8-Dimethyl-7-[2-(4-pyridin-3-yl-phenylamino)-pyrimidin-4-yl]-3,4-dihydro-2H-pyrrolo[1,2-a]pyrazin-1-one] | < 1000 nM |
| Cc1c(-c2ccnc(Nc3ccc(-c4nncn4C)cc3)n2)c(C)n2c1C(=O)NCC2 [Example I-79, 6,8-Dimethyl-7-{2-[4-(4-methyl-4H-[1,2,4]triazol-3-yl)-phenylamino]-pyrimidin-4-yl}-3,4-dihydro-2H-pyrrolo[1,2-a]pyrazin-1-one] | < 1000 nM |
| Cc1cc(C)n(-c2ccc(Nc3nccc(-c4c(C)c5n(c4C)CCNC5=O)n3)cc2)n1 [Example I-80, 7-{2-[4-(3,5-Dimethyl-pyrazol-1-yl)-phenylamino]-pyrimidin-4-yl}-6,8-dimethyl-3,4-dihydro-2H-pyrrolo[1,2-a]pyrazin-1-one] | < 1000 nM |
| CCOC(=O)c1cnn(-c2ccc(Nc3nccc(-c4c(C)c5n(c4C)CCNC5=O)n3)cc2)c1C [Example I-81, 1-{4-[4-(6,8-Dimethyl-1-oxo-1,2,3,4-tetrahydro-pyrrolo[1,2-a]pyrazin-7-yl)-pyrimidin-2-ylamino]-phenyl}-5-methyl-1H-pyrazole-4-carboxylic acid ethyl ester] | < 1000 nM |
| Cc1c(-c2ccnc(Nc3ccc(-c4ccno4)cc3)n2)c(C)n2c1C(=O)NCC2 [Example I-82, 7-[2-(4-Isoxazol-5-yl-phenylamino)-pyrimidin-4-yl]-6,8-dimethyl-3,4-dihydro-2H-pyrrolo[1,2-a]pyrazin-1-one] | < 100 nM |
| Cc1c(-c2ccnc(Nc3ccc(-c4csc(CC(N)=O)n4)cc3)n2)c(C)n2c1C(=O)NCC2 [Example I-83, 2-(4-{4-[4-(6,8-Dimethyl-1-oxo-1,2,3,4-tetrahydro-pyrrolo[1,2-a]pyrazin-7-yl)-pyrimidin-2-ylamino]-phenyl}-thiazol-2-yl)-acetamide] | < 1000 nM |
| Cc1c(-c2ccnc(Nc3ccc(-c4csc(CC#N)n4)cc3)n2)c(C)n2c1C(=O)NCC2 [Example I-84] | < 1000 nM |
| COc1ccc(Nc2nccc(-c3c(C)c4n(c3C)CCNC4=O)n2)c(OC)c1 [Example I-85, 7-[2-(2,4-Dimethoxy-phenylamino)-pyrimidin-4-yl]-6,8-dimethyl-3,4-dihydro-2H-pyrrolo[1,2-a]pyrazin-1-one] | < 10000 nM |
| Cc1c(-c2ccnc(Nc3ccc(F)cc3Cl)n2)c(C)n2c1C(=O)NCC2 [Example I-86, 7-[2-(2-Chloro-4-fluoro-phenylamino)-pyrimidin-4-yl]-6,8-dimethyl-3,4-dihydro-2H-pyrrolo[1,2-a]pyrazin-1-one] | < 10000 nM |
| COc1ccc(Cl)cc1Nc1nccc(-c2c(C)c3n(c2C)CCNC3=O)n1 [Example I-87, 7-[2-(5-Chloro-2-methoxy-phenylamino)-pyrimidin-4-yl]-6,8-dimethyl-3,4-dihydro-2H-pyrrolo[1,2-a]pyrazin-1-one] | < 10000 nM |
| Cc1ccc(F)cc1Nc1nccc(-c2c(C)c3n(c2C)CCNC3=O)n1 [Example I-88, 7-[2-(5-Fluoro-2-methyl-phenylamino)-pyrimidin-4-yl]-6,8-dimethyl-3,4-dihydro-2H-pyrrolo[1,2-a]pyrazin-1-one] | < 10000 nM |
| Cc1ccc(Oc2ccc(Nc3nccc(-c4c(C)c5n(c4C)CCNC5=O)n3)cc2)cc1 [Example I-89, 6,8-Dimethyl-7-[2-(4-p-tolyloxy-phenylamino)-pyrimidin-4-yl]-3,4-dihydro-2H-pyrrolo[1,2-a]pyrazin-1-one] | < 10000 nM |
| CCN(CC)CCNS(=O)(=O)c1ccc(Nc2nccc(-c3c(C)c4n(c3C)CCNC4=O)n2)cc1C [Example I-90, N-(2-Diethylamino-ethyl)-4-[4-(6,8-dimethyl-1-oxo-1,2,3,4-tetrahydro-pyrrolo[1,2-a]pyrazin-7-yl)-pyrimidin-2-ylamino]-2-methyl-benzenesulfonamide] | < 10000 nM |
| Cc1cc(Nc2nccc(-c3c(C)c4n(c3C)CCNC4=O)n2)ccc1S(=O)(=O)N(C)CCCN(C)C [Example I-91, N-(3-Dimethylamino-propyl)-4-[4-(6,8-dimethyl-1-oxo-1,2,3,4-tetrahydro-pyrrolo[1,2-a]pyrazin-7-yl)-pyrimidin-2-ylamino]-2,N-dimethyl-benzenesulfonamide] | < 10000 nM |
| CCOC(=O)c1c(C)nn(-c2ccc(Nc3nccc(-c4c(C)c5n(c4C)CCNC5=O)n3)cc2)c1C [Example I-92, 1-{4-[4-(6,8-Dimethyl-1-oxo-1,2,3,4-tetrahydro-pyrrolo[1,2-a]pyrazin-7-yl)-pyrimidin-2-ylamino]-phenyl}-3,5-dimethyl-1H-pyrazole-4-carboxylic acid ethyl ester] | < 10000 nM |
| Cc1nccc(-c2cccc(Nc3nccc(-c4c(C)c5n(c4C)CCN(C)C5=O)n3)c2)n1 [Example I-93, 2,6,8-Trimethyl-7-{2-[3-(2-methyl-pyrimidin-4-yl)-phenylamino]-pyrimidin-4-yl}-3,4-dihydro-2H-pyrrolo[1,2-a]pyrazin-1-one] | < 100 nM |
| Cc1c(-c2ccnc(Nc3ccc4c(c3)CS(=O)(=O)C4)n2)c(C)n2c1C(=O)N(C)CC2 [Example I-94, 7-[2-(2,2-Dioxo-2,3-dihydro-1H-2-benzo[c]thiophen-5-ylamino)-pyrimidin-4-yl]-2,6,8-trimethyl-3,4-dihydro-2H-pyrrolo[1,2-a]pyrazin-1-one] | < 100 nM |
| CCN1CCn2c(C)c(-c3ccnc(Nc4cccc(-c5ccnc(C)n5)c4)n3)c(C)c2C1=O [Example I-95, 2-Ethyl-6,8-dimethyl-7-{2-[3-(2-methyl-pyrimidin-4-yl)-phenylamino]-pyrimidin-4-yl}-3,4-dihydro-2H-pyrrolo[1,2-a]pyrazin-1-one] | < 1000 nM |
| Cc1c(-c2ccnc(Nc3cccc(S(=O)(=O)N4CCCCC4)c3)n2)c(C)n2c1C(=O)NCC2 [Example I-95c, 6,8-Dimethyl-7-{2-[3-(piperidine-1-sulfonyl)-phenylamino]-pyrimidin-4-yl}-3,4-dihydro-2H-pyrrolo[1,2-a]pyrazin-1-one] | < 10000 nM |
| COCCNC(=O)Cc1ccc(Nc2nccc(-c3c(C)c4n(c3C)CCNC4=O)n2)cc1 [Example I-96, 2-{4-[4-(6,8-Dimethyl-1-oxo-1,2,3,4-tetrahydro-pyrrolo[1,2-a]pyrazin-7-yl)-pyrimidin-2-ylamino]-phenyl}-N-(2-methoxy-ethyl)-acetamide] | < 100 nM |
| Cc1c(-c2ccnc(Nc3ccc(CC(=O)N(C)CCN(C)C)cc3)n2)c(C)n2c1C(=O)NCC2 [Example I-97, N-(2-Dimethylamino-ethyl)-2-{4-[4-(6,8-dimethyl-1-oxo-1,2,3,4-tetrahydro-pyrrolo[1,2-a]pyrazin-7-yl)-pyrimidin-2-ylamino]-phenyl}-N-methyl-acetamide] | < 1000 nM |
| Cc1c(-c2ccnc(Nc3ccc(CC(=O)N(C)CCCN(C)C)cc3)n2)c(C)n2c1C(=O)NCC2 [Example I-98, N-(3-Dimethylamino-propyl)-2-{4-[4-(6,8-dimethyl-1-oxo-1,2,3,4-tetrahydro-pyrrolo[1,2-a]pyrazin-7-yl)-pyrimidin-2-ylamino]-phenyl}-N-methyl-acetamide] | < 1000 nM |
| Cc1c(-c2ccnc(Nc3ccc(CC(=O)N4CCOCC4)cc3)n2)c(C)n2c1C(=O)NCC2 [Example I-99, 6,8-Dimethyl-7-{2-[4-(2-morpholin-4-yl-2-oxo-ethyl)-phenylamino]-pyrimidin-4-yl}-3,4-dihydro-2H-pyrrolo[1,2-a]pyrazin-1-one] | < 1000 nM |
| CC(=O)N1CCN(C(=O)Cc2ccc(Nc3nccc(-c4c(C)c5n(c4C)CCNC5=O)n3)cc2)CC1 [Example I-100, 7-(2-{4-[2-(4-Acetyl-piperazin-1-yl)-2-oxo-ethyl]-phenylamino}-pyrimidin-4-yl)-6,8-dimethyl-3,4-dihydro-2H-pyrrolo[1,2-a]pyrazin-1-one] | < 1000 nM |
